Assay results: patent publication US20020013478A1, “Calanolide analogues and methods of their use” (Sarawak Medichem Pharmaceuticals,Inc., priority 1994, published 2002)
pEC50, pIC50: −log10 of the molar value. Converted amounts (≈) assume the structure as drawn. Where two headings read alike, the source gives them in different places.

Assays:
HBV = HBV replication in cultures of 2.2.15 cells, extracellular HBV virion DNA (primary assay); details: for pEC50: read-out: HBV EC50
Experimental: Both intracellular and extracellular HBV DNA are analyzed in order to (i) allow for verification of compound efficacy and (ii) provide possible data on the target site in the HBV replication pathway for the compound from examination of the pattern of viral replicative forms. The culture medium is changed daily during the treatment period to (i) prevent the buildup of potentially toxic metabolites derived from test compounds and (ii) provide an analysis of HBV virion production during discrete 24-hour intervals which enables a quantitative comparison of any effect on virion production.
The analysis of HBV DNA is performed using blot hybridization techniques (Southern and slot blot) and [^32P]-labeled HBV-specific probes. HBV DNA levels are measured by comparison to known amounts of HBV DNA standards applied to every nitrocellulose membrane (gel or slot blot). An AMBIS beta scanner, which measures the radioactive decay of the hybridized probes directly from the nitrocellulose membranes, is used for the quantitative analysis. Standard curves, generated by multiple analyses, are used to correlate CPM measurements made by the beta scanner with relative levels of target HBV DNA. The levels of HBV virion DNA released into the culture medium are analyzed by a slot blot hybridization procedure.

VZV = VZV plaque reduction assay in human foreskin fibroblast cells; type: cell-based, varicella zoster virus; details: Table II
Summary of the method: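 VZV at 20-30 plaques/well adsorbed 1 h onto HFF monolayers, then 0.5% agarose overlay holding drug at final 100 down to 0.03 μg/mL (1:5 steps), duplicates. Incubation 10 days, extra MEM/agarose overlay on days 3 and 6; neutral red staining, plaques counted.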

[1] = test system: HCMV isolates Towne, AD169, E. Mann, Coffman, C9208; assay: Anti-CMV plaque reduction assay against various laboratory and clinical isolates (Example 40); type: cell-based, human cytomegalovirus
[2] = test system: African green monkey kidney (BSC-1) cells; assay: Cytotoxicity run with the measles assay
Text: Virus strain: CC (Source: Pennsylvania State University) Cell line: African green monkey kidney (BSC-1) cells.

HCMV = HCMV semi-automated CPE-inhibition assay in human foreskin fibroblast cells; type: cell-based, human cytomegalovirus
[3] = test system: human foreskin fibroblast cells; assay: Toxicity run with the VZV assay, human foreskin fibroblast cells; type: cell-based; details: Table II
Summary of the method: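 Human foreskin fibroblasts exposed to drug at 37 °C in CO2, either 72 h followed by Coulter Counter counts (triplicate counts, three replicate wells), or seven days followed by dye staining for 1 h and optical density at 550 nm.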

[4] = test system: human foreskin fibroblast cells; assay: Cell viability in the CMV plaque reduction assay (MTC); type: cell-based
Text: Five calanolide analogues, prepared as described above, were further evaluated for their anti-HCMV activity in plaque reduction assay against various laboratory and clinical isolates (Towne, AD 169, E. Mann, Coffinan, and C9208).

CEM-SS cells = assay: CEM-SS MTT assay, cytotoxicity (Table I); type: cell-based, human
Raji or Daudi cells = assay: Toxicity run with the EBV assay; type: cell-based, human; details: Table II
Text: IC50 (50% inhibitory concentration) is the concentration required to inhibit cell proliferation by 50%

Structure (SMILES): CCCc1cc(=O)oc2c3c(c4c(c12)OC(C)(C)C=C4)OC(C)C(C)C3=O (racemic) [(±)-7a]
- pEC50 (HBV; Table II): 4.36
- VZV EC50 (VZV): 13.7 µg/mL
- pEC50 ([1]; isolate AD169): 5.50
- pEC50 ([1]; isolate C9208): 5.59
- pEC50 ([1]; isolate Coffman): 5.50
- pEC50 ([1]; isolate E. Mann): 5.50
- pEC50 ([1]; isolate Towne): 5.51
- pIC50 ([2]; read-out: Others IC50, against measles, Table II footnote g): 3.48
- pEC50 (HIV-1; CEM-SS MTT assay): 5.55
- Maximum Protection (%) (HIV-1; CEM-SS MTT assay): 55%
- HCMV EC50 (HCMV; Table II): 0.15 µg/mL
- VZV IC50 [3]: 33.3 µg/mL
- MTC (minimum drug concentration that reduced cell viability by 25%) [4]: 10 µM
- pIC50 (CEM-SS cells): 4.92
- EBV IC50 (Raji or Daudi cells): >50 µg/mL

Structure (SMILES): CCCc1cc(=O)oc2c3c(c4c(c12)OC(C)(C)C=C4)O[C@H](C)[C@@H](C)C3=O [(+)-7, 10(R),11(R)-trans-Dihydro6,6,10,11-tetramethyl-4-propyl-2H,6H,12H-benzo [1,2-b:3,4-b′:5,6-b″]tripyran-2,12-dione]
- pEC50 (HBV; Hepatitis B virus): 5.14
- potency against HBV (HBV; text summary of Table II): potent
- EC50 (VZV; Human alphaherpesvirus 3, Fibroblast): 55.9 µg/mL (≈ 152 µM)
- pEC50 ([1]; Human betaherpesvirus 5, AD169, isolate AD169): 5.50
- pEC50 ([1]; Human betaherpesvirus 5, AD169, isolate C9208): 5.31
- pEC50 ([1]; Human betaherpesvirus 5, AD169, isolate Coffman): 5.32
- pEC50 ([1]; Human betaherpesvirus 5, AD169, isolate E. Mann): 5.33
- pEC50 ([1]; Human betaherpesvirus 5, AD169, isolate Towne): 5.30
- pIC50 ([2]; Chlorocebus sabaeus, BSC-1, read-out: Others IC50, against measles): 5.00
- Maximum Protection (%) (HIV-1; CEM-SS MTT assay): 90%
- protecting cells against HIV infection (HIV-1; text summary of Table I): highly efficacious
- EC50 (HCMV; Human betaherpesvirus 5, Fibroblast, Table II): 0.11 µg/mL (≈ 0.299 µM)
- potency against HCMV (HCMV; text summary of Table II): very potent
- IC50 ([3]; Homo sapiens, Fibroblast): > 100 µg/mL
- MTC (minimum drug concentration that reduced cell viability by 25%) ([4]; isolate AD169): 100 µM
- MTC (minimum drug concentration that reduced cell viability by 25%) ([4]; isolate C9208): >100 µM
- MTC (minimum drug concentration that reduced cell viability by 25%) ([4]; isolate Coffman): >100 µM
- MTC (minimum drug concentration that reduced cell viability by 25%) ([4]; isolate E. Mann): 100 µM
- MTC (minimum drug concentration that reduced cell viability by 25%) ([4]; isolate Towne): >100 µM
- pIC50 (CEM-SS cells; Homo sapiens): 4.14
- IC50 (Raji or Daudi cells; Homo sapiens): > 50 µg/mL
